Source: ChEMBL document CHEMBL5291721, “A preclinical secondary pharmacology resource illuminates target-adverse drug reaction associations of marketed drugs” (Nat Commun, 2023)
Where a SMILES comes first, the peptide text is derived from it. [ ]: non-standard residue; d: D form. pGlu = O=C1CC[C@@H](C(=O)O)N1; Thz = O=C(O)[C@@H]1CSCN1

How the values were obtained:
Adenosine receptor A3 = target: T1, Adenosine receptor A3 (Homo sapiens, UniProt P0DMS8)
T1 sequence (P0DMS8 whole entry): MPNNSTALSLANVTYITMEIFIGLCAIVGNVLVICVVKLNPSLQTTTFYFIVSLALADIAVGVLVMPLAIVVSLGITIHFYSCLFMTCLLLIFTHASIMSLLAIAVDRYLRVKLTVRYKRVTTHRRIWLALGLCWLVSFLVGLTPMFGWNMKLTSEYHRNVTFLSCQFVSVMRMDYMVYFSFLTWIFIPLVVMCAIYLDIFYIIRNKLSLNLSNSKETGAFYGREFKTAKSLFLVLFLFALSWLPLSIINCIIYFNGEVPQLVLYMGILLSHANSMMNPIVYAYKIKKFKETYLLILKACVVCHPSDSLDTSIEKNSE

[1] = target: T2, Type-1 angiotensin II receptor (Homo sapiens, UniProt P30556)
T2 sequence (P30556 whole entry): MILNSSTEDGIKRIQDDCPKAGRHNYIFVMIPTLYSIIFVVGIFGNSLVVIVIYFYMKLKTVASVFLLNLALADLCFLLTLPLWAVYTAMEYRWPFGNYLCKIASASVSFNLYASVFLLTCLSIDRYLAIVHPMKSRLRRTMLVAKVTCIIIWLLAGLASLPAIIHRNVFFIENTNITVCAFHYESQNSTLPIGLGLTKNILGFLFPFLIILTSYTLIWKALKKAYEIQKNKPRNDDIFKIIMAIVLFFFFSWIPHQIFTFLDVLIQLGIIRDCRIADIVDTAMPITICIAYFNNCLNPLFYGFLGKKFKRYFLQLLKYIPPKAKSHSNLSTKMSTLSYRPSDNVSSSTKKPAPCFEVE

Vasopressin V1a receptor = Vasopressin V1a receptor (Homo sapiens, UniProt P37288)
Vasopressin V2 receptor = Vasopressin V2 receptor (Homo sapiens, UniProt P30518)
[2] = target: Muscarinic acetylcholine receptor M3 (Homo sapiens, UniProt P20309)
[3] = target: Neuronal acetylcholine receptor subunit alpha-4 (Homo sapiens, UniProt P43681)
[4] = target: Growth hormone secretagogue receptor type 1 (Homo sapiens, UniProt Q92847)
[5] = target: Glutamate receptor ionotropic, NMDA 1 (Rattus norvegicus, UniProt P35439)
[6] = target: 5-hydroxytryptamine receptor 2A (Homo sapiens, UniProt P28223); format: functional, cell-based
Progesterone receptor = target: T3, Progesterone receptor (Homo sapiens, UniProt P06401); format: functional
T3 sequence (P06401 whole entry): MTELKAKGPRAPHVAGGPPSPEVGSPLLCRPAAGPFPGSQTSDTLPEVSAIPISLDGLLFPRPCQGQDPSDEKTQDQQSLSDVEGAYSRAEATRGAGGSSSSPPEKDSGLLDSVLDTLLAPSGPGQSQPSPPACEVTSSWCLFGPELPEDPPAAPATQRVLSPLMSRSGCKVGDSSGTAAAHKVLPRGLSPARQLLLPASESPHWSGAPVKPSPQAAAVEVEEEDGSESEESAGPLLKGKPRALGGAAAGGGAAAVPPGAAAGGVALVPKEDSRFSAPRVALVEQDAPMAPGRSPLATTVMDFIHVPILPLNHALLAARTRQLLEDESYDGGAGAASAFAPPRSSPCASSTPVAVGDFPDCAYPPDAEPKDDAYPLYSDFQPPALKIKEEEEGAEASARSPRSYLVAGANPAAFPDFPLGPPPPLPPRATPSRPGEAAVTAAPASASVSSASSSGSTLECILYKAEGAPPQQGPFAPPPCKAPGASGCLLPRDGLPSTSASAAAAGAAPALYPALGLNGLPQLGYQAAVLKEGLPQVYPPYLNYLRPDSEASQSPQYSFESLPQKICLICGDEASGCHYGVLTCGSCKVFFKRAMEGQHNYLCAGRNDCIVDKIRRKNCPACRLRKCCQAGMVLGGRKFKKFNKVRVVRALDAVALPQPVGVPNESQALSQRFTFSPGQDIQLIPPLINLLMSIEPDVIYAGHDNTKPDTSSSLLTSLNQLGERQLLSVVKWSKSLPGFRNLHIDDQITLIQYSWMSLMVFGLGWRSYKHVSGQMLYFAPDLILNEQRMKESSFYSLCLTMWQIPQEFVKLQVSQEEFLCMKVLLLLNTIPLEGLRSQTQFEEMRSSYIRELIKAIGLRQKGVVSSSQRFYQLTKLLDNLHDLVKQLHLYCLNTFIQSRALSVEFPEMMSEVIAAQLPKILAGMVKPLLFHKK

[7] = target: Sodium-dependent dopamine transporter (Homo sapiens, UniProt Q01959)
[8] = target: T4, Amine oxidase [flavin-containing] A (Homo sapiens, UniProt P21397); format: functional
T4 sequence (P21397 whole entry): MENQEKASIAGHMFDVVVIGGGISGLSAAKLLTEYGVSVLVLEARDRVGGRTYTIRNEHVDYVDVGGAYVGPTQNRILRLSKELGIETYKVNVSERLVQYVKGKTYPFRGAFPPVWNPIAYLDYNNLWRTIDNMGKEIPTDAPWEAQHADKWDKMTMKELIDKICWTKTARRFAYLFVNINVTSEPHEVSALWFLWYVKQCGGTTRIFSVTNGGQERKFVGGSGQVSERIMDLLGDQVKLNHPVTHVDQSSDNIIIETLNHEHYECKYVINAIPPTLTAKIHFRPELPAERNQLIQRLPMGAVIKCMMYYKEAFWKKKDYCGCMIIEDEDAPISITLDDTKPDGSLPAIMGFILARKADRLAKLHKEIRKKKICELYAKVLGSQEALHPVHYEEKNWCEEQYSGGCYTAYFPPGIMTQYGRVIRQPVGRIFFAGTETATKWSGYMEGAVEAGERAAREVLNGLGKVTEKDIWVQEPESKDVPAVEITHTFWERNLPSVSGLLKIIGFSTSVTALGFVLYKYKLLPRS

Melanocortin receptor 4 = Melanocortin receptor 4 (Homo sapiens, UniProt P32245)
Mu-type opioid receptor = Mu-type opioid receptor (Homo sapiens, UniProt P35372)

Measured: AC50
Further: assay procedure not described here.

Sequence of Muscarinic acetylcholine receptor M3 (P20309 whole entry): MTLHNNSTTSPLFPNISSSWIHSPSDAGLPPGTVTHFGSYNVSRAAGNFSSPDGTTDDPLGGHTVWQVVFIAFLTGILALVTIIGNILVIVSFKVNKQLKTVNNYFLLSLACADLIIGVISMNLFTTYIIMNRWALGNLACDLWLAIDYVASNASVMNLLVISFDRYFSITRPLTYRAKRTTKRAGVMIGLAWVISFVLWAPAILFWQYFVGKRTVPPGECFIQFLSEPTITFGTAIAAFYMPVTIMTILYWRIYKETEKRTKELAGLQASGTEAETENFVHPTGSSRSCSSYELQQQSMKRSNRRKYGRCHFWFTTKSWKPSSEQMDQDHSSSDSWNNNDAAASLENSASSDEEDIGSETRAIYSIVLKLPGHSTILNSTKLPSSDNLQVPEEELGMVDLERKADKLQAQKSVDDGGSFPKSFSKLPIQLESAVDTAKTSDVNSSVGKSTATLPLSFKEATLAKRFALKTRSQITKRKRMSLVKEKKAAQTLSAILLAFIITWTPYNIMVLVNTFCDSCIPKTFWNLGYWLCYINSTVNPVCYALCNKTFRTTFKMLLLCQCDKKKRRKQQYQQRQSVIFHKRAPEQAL
Sequence of Neuronal acetylcholine receptor subunit alpha-4 (P43681 whole entry): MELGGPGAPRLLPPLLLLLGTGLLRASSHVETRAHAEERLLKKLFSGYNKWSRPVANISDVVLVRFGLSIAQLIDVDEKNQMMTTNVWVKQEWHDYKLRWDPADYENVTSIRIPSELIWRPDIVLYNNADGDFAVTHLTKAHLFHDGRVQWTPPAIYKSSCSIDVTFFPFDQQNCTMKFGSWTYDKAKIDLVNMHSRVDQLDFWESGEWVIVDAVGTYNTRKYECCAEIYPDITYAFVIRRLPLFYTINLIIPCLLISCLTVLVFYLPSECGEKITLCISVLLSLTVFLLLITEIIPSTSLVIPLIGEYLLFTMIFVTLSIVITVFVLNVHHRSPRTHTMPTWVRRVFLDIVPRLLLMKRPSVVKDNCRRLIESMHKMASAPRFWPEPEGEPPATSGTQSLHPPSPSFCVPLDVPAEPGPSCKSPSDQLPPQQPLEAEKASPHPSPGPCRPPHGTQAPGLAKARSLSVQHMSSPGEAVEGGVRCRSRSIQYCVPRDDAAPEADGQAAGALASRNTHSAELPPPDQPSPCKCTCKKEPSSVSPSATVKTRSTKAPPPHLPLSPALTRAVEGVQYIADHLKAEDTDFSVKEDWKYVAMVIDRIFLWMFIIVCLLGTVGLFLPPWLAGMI
Sequence of Vasopressin V2 receptor (P30518 whole entry): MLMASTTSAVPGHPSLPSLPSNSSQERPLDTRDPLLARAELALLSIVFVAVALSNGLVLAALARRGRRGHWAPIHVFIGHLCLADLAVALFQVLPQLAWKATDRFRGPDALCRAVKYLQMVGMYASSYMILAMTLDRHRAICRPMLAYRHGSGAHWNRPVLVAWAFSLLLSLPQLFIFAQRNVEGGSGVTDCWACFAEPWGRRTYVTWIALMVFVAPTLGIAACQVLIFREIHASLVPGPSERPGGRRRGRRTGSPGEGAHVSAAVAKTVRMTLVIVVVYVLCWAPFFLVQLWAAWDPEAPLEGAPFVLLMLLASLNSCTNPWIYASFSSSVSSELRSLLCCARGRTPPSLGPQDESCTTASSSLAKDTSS
Sequence of Vasopressin V1a receptor (P37288 whole entry): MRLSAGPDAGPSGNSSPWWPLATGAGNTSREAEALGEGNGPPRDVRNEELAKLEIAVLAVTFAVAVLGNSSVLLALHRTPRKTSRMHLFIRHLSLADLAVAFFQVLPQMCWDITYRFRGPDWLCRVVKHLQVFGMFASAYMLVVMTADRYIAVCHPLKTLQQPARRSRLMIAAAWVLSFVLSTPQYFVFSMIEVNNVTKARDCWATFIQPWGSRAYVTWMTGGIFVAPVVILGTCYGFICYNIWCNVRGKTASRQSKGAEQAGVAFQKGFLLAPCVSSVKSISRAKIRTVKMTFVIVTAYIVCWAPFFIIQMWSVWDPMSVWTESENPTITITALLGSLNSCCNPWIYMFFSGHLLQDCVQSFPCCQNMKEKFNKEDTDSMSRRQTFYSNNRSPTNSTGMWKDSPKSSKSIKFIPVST
Sequence of Mu-type opioid receptor (P35372 whole entry): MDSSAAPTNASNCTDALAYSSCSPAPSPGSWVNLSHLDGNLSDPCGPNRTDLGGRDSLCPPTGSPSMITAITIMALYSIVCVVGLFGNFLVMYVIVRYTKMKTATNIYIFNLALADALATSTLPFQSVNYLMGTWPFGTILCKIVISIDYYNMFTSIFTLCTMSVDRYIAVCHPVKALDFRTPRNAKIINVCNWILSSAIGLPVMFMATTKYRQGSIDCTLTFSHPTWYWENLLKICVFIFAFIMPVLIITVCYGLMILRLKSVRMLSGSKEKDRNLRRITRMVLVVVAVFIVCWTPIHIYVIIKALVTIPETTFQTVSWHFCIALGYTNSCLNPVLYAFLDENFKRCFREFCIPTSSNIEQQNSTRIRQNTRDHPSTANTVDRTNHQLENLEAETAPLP
Sequence of 5-hydroxytryptamine receptor 2A (P28223 whole entry): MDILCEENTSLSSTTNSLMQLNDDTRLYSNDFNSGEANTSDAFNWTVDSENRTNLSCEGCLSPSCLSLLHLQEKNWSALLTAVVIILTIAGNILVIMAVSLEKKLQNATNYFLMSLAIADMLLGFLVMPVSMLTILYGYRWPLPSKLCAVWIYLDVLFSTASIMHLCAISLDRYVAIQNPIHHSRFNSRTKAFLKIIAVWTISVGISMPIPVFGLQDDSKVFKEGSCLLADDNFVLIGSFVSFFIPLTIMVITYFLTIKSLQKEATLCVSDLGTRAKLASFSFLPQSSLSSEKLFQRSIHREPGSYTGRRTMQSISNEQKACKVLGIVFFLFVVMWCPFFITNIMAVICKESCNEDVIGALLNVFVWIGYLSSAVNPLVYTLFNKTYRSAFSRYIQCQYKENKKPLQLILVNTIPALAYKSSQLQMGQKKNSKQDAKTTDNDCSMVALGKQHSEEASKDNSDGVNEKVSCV
Sequence of Melanocortin receptor 4 (P32245 whole entry): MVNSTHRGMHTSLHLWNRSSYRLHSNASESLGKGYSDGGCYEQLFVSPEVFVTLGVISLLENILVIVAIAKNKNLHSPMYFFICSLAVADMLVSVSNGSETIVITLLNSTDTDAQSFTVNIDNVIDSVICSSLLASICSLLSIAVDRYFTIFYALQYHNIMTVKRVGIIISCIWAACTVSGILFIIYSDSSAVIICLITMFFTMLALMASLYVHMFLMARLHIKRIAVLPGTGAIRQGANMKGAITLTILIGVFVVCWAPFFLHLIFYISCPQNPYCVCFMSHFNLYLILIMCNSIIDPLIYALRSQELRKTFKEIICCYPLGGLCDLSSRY
Sequence of Sodium-dependent dopamine transporter (Q01959 whole entry): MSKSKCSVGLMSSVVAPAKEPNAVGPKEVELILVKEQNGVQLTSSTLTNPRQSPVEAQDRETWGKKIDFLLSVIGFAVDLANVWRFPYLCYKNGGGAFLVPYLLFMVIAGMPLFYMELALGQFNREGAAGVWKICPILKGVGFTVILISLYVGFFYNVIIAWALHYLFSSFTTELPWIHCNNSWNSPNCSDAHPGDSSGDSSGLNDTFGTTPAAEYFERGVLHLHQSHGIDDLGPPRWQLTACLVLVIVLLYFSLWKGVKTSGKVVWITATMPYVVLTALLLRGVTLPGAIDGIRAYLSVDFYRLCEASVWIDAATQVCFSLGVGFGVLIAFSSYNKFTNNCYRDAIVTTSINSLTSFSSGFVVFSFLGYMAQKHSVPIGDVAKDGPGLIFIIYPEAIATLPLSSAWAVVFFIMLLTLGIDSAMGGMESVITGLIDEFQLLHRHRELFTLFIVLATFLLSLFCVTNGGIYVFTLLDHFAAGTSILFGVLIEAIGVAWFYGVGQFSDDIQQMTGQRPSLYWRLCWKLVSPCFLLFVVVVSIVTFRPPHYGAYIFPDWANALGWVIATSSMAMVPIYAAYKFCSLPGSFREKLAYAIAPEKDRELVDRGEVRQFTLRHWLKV
Sequence of Growth hormone secretagogue receptor type 1 (Q92847 whole entry): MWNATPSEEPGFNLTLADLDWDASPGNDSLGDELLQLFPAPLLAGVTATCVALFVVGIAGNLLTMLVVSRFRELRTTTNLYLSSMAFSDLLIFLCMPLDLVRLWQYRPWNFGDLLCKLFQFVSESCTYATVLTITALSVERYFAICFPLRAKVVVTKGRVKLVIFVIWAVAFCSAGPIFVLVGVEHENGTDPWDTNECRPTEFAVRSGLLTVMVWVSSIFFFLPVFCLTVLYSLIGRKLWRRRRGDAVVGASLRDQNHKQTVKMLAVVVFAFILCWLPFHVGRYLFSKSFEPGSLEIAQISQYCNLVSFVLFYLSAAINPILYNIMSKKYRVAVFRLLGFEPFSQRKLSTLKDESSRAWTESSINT

Clc1ccc(CCC(Cn2ccnc2)Sc2c(Cl)cccc2Cl)cc1 (centres undefined) [BUTOCONAZOLE]
30 µM: [1]
16 µM: Adenosine receptor A3
21 µM: [2]
20 µM: [7]
not listed: Melanocortin receptor 4 | Mu-type opioid receptor
> 30 µM: all other assays above

CO/N=C(\C(=O)N[C@@H]1C(=O)N2C(C(=O)O)=CCS[C@H]12)c1csc(N)n1 [CEFTIZOXIME]
not listed: [2] | [5] | Melanocortin receptor 4 | Mu-type opioid receptor
> 30 µM: all other assays above

CO[C@H]1C[C@H](O[C@H]2CC[C@@]3(C)[C@H](CC[C@@H]4[C@@H]3CC[C@]3(C)[C@@H](C5=CC(=O)OC5)[C@@H](OC(C)=O)C[C@]43O)C2)O[C@@H](C)[C@@H]1O [OLEANDRIN]
> 30 µM: [2] | [5] | [6] | [8]

CCc1nc(N)nc(N)c1-c1ccc(Cl)cc1 [PYRIMETHAMINE]
> 30 µM: [2] | Mu-type opioid receptor | [8]
2.2 µM: [7]
not listed: [6]
> 10 µM: all other assays above

CCC(=O)O[C@](Cc1ccccc1)(c1ccccc1)[C@H](C)CN(C)C [PROPOXYPHENE]
> 30 µM: Adenosine receptor A3 | [1] | Vasopressin V2 receptor | [4] | Melanocortin receptor 4
16 µM: [2]
0.693 µM: Mu-type opioid receptor
not listed: [6] | Progesterone receptor
> 10 µM: all other assays above

O=C1CC[C@@H](C(=O)N2CSC[C@H]2C(=O)O)N1 [PIDOTIMOD] ([pGlu]-[Thz]-OH)
not listed: Melanocortin receptor 4 | Mu-type opioid receptor
> 30 µM: all other assays above

CCOC(=O)c1ccc(C#Cc2ccc3c(c2)C(C)(C)CCS3)nc1 [TAZAROTENE]
> 10 µM: [3] | [5] | [8]
not listed: Vasopressin V1a receptor | [6] | Progesterone receptor
> 30 µM: all other assays above

Oc1ccc(CCNCCCCCCNCCc2ccccc2)cc1O [DOPEXAMINE]
0.5 µM: [7]
12 µM: Adenosine receptor A3
not listed: Melanocortin receptor 4 | Mu-type opioid receptor
> 30 µM: all other assays above

NNC(=O)c1ccncc1 [ISONIAZID]
32.7 µM: Adenosine receptor A3
not listed: [2] | [6]
> 30 µM: all other assays above

Oc1cc(O)c(Cl)cn1
not listed: Progesterone receptor | Melanocortin receptor 4 | Mu-type opioid receptor
> 30 µM: all other assays above

CCCCOc1ccc(C(=O)CCN2CCCCC2)cc1 [DYCLONINE]
> 30 µM: Adenosine receptor A3 | [1] | Vasopressin V2 receptor | [4] | Melanocortin receptor 4
4.82 µM: [7]
not listed: [6] | Progesterone receptor
> 10 µM: all other assays above

CCCN(CCC)S(=O)(=O)c1ccc(C(=O)O)cc1 [PROBENECID]
> 30 µM: Mu-type opioid receptor
not listed: Vasopressin V1a receptor | [2] | [6]
> 10 µM: all other assays above

NC(=O)NC(=O)Cc1ccccc1 [PHENACEMIDE]
> 30 µM: Mu-type opioid receptor
not listed: Vasopressin V1a receptor | [2] | [6]
> 10 µM: all other assays above

CC(CN(C)C)C(C)(O)Cc1ccc(Cl)cc1 (centres undefined) [CLOBUTINOL]
> 10 µM: [3] | [5] | [8]
not listed: Vasopressin V1a receptor | [6]
> 30 µM: all other assays above

COc1ccc(C2C(=O)c3ccccc3C2=O)cc1 [ANISINDIONE]
91 µM: [8]
> 30 µM: Progesterone receptor | Mu-type opioid receptor
not listed: Vasopressin V1a receptor | [2] | [6]
> 10 µM: all other assays above

C[C@@H]1C[C@H]2[C@@H]3CCC4=CC(=O)C=C[C@]4(C)[C@@]3(F)[C@@H](O)C[C@]2(C)[C@@]1(O)C(=O)CO [DEXAMETHASONE]
0.2 µM: Progesterone receptor
> 10 µM: [5]
not listed: [2] | [6]
> 30 µM: all other assays above

CCC1(CCC(C)C)C(=O)NC(=O)NC1=O [AMOBARBITAL]
> 30 µM: Mu-type opioid receptor
not listed: Vasopressin V1a receptor | [2] | [6]
> 10 µM: all other assays above
